Tests used:
SK-N-MC cells [1] = assay: Verification of morphology and cell density by microscopy on plates treated with laminin (FIG. 8b); type: cell-based, human; conditions: plates with laminin vs normal plate, same number of starting cells
Experimental: (§1) As a result, SK-N-MC cells were cultured in standard 24-well plates and in 24-well plates previously treated with laminin (Laminin 24-well Multiwell plates, BD) at a cell density of 300,000 cells per well and 1 ml of specific medium consisting of MEM medium supplemented with 2 mM L-glutamine, 1 mM sodium pyruvate, 0.1 mM non-essential amino acids, […] of gentamicin and 1% antibiotic at 37° C. and 5% CO2.
(§2) The day after seeding the SK-N-MC cells in the standard 24-well plates and in 24-well plates treated with laminin, transport conditions are simulated according to the specifications described in the previous example.
In turn, the analysis of the cell morphology of the cultures of SK-N-MC in normal 24-well plates and 24-well plates treated with laminin shown in FIG. 8b proves that the number of cells in the culture in plates with laminin is greater than that of the culture in a normal plate despite the fact that the number of starting cells for both of them is the same, which reaffirms the results obtained from measuring the proliferation by means of MTT. The non-detection of the difference in the cell density by the proliferation assay by means of MTT can be due to the high cell confluence of both cultures.

SK-N-MC cells [2] = assay: Proliferation assay with MTT on plates treated with laminin (FIG. 8a); type: cell-based, human; conditions: plate treated with laminin vs standard 24-well plate
Experimental: as §1, §2
Once the time necessary for the cells to recover from transport has elapsed, the proliferation rate of both cultures is determined by means of measuring cell proliferation at times 24 and 48 h using the MTT test described in the previous example.

With laminin the “number of cells in the culture (microscopy)” value (SK-N-MC cells [1]) was “greater”, the “proliferation rate (MTT)” value (SK-N-MC cells [2]; after 24 hours in culture) was “an increase in the proliferation” and the “proliferation rate (MTT)” value (SK-N-MC cells [2]; after 48 hours in culture) was “equal”.

From patent publication US8709803B2, “Cell transport system comprising a homogeneous mixture of agarose and agarase” (Histocell, S.L., priority 2008, dated 2014)
